Marks after values point to notes of the source that are not given here.
Tests used:
male rats = assay: 28-day repeated dose oral toxicity study (OECD 407) with GC-MS/LC-MS plasma metabolite profiling, male rats; assay type: in vivo, rat; settings: plasma
Source text: Drinking water was also offered ad libitum.
The samples were centrifuged for generation of plasma.

female rats = assay: 28-day repeated dose oral toxicity study (OECD 407) with GC-MS/LC-MS plasma metabolite profiling, female rats
Procedure: A group of each 5 male and female rats was dosed once daily with the indicated compounds (see Table 5, below for compounds, applied doses and administeration details) over 28 days.
Each dose group in the studies consisted of five rats per sex. Additional groups of each 5 male and female animals served as controls. Before starting the treatment period, animals, which were 62-64 days old when supplied, were acclimatized to the housing and environmental conditions for 7 days. All animals of the animal population were kept under the same constant temperature (20-24±3° C.) and the same constant humidity (30-70%). The animals of the animal population were fed ad libitum. The food to be used was essentially free of chemical or microbial contaminants. Drinking water was also offered ad libitum. Accordingly, the water was free of chemical and microbial contaminants as laid down in the European Drinking Water Directive 98/83/EG. The illumination period was 12 hours light followed by 12 hours darkness (12 hours light, from 6:00 to 18:00, and 12 hours darkness, from 18:00 to 6:00).
In the morning of day 7, 14, and 28, blood was taken from the retroorbital venous plexus from fasted anaesthetized animals. From each animal, 1 ml of blood was collected with EDTA as anticoagulant. The samples were centrifuged for generation of plasma. All plasma samples were covered with a N2 atmosphere and then stored at −80° C. until analysis.
For mass spectrometry-based metabolite profiling analyses plasma samples were extracted and a polar and a non-polar (lipid) fraction was obtained. For GC-MS analysis, the non-polar fraction was treated with methanol under acidic conditions to yield the fatty acid methyl esters. Both fractions were further derivatised with O-methyl-hydroxyamine hydrochloride and pyridine to convert Oxogroups to O-methyloximes and subsequently with a silylating agent before analysis. In LC-MS analysis, both fractions were reconstituted in appropriate solvent mixtures. HPLC was performed by gradient elution on reversed phase separation columns.
Following comprehensive analytical validation steps, the data for each analyte were normalized against data from pool samples. These samples were run in parallel through the whole process to account for process variability. The significance of treatment group values specific for sex, treatment duration and metabolite was determined by comparing means of the treated groups to the means of the respective untreated control groups using WELCH-test and quantified with treatment ratios versus control and p-values.

Cc1cccc(C)c1N(Cn1cccn1)C(=O)CCl [Metazachlor, N-(2,6-dimethylphenyl)-N-(pyrazol-1-ylmethyl)chloroacetamid]
4-Hydroxyphenylpyruvate, ratio versus control (male rats; day 7): 2.23* | Glycerol-3-phosphate, polar fraction, ratio versus control (male rats; day 7): 1.04 | Phosphatidylcholine (C16:1,C18:2), ratio versus control (male rats; day 7): 1.29* | Phosphatidylcholine (C18:0,C18:1), ratio versus control (male rats; day 7): 1.56* | Phosphatidylcholine (C18:0,C18:2), ratio versus control (male rats; day 7): 1.4* | Phytosphingosine, ratio versus control (male rats; day 7): 2.08* | Lysophosphatidylcholine (C18:1), ratio versus control (male rats; day 7 (Table 2)): 1.1* | Phosphatidylcholine (C16:0,C20:5), ratio versus control (male rats; day 7 (Table 2)): 1 | alpha-Tocopherol, ratio versus control (male rats; day 7 (Table 2)): 1.8* | 4-Hydroxyphenylpyruvate, ratio versus control (male rats; day 14): 2.59* | Glycerol-3-phosphate, polar fraction, ratio versus control (male rats; day 14): 1.63* | Phosphatidylcholine (C16:1,C18:2), ratio versus control (male rats; day 14): 2.11* | Phosphatidylcholine (C18:0,C18:1), ratio versus control (male rats; day 14): 2.37* | Phosphatidylcholine (C18:0,C18:2), ratio versus control (male rats; day 14): 1.55* | Phytosphingosine, ratio versus control (male rats; day 14): 2.86* | Lysophosphatidylcholine (C18:1), ratio versus control (male rats; day 14 (Table 2)): 1.49* | Phosphatidylcholine (C16:0,C20:5), ratio versus control (male rats; day 14 (Table 2)): 1.47* | alpha-Tocopherol, ratio versus control (male rats; day 14 (Table 2)): 1.3* | 4-Hydroxyphenylpyruvate, ratio versus control (male rats; day 28): 3.26* | Glycerol-3-phosphate, polar fraction, ratio versus control (male rats; day 28): 1.52* | Phosphatidylcholine (C16:1,C18:2), ratio versus control (male rats; day 28): 2.32* | Phosphatidylcholine (C18:0,C18:1), ratio versus control (male rats; day 28): 2.06* | Phosphatidylcholine (C18:0,C18:2), ratio versus control (male rats; day 28): 1.51* | Phytosphingosine, ratio versus control (male rats; day 28): 3.2* | Lysophosphatidylcholine (C18:1), ratio versus control (male rats; day 28 (Table 2)): 1.33* | Phosphatidylcholine (C16:0,C20:5), ratio versus control (male rats; day 28 (Table 2)): 1.67* | alpha-Tocopherol, ratio versus control (male rats; day 28 (Table 2)): 1.49* | 3-O-Methylsphingosine (d18:1), ratio versus control (female rats; day 7): 5.2* | 5-O-Methylsphingosine (d18:1), ratio versus control (female rats; day 7): 5.11* | 14-Methylhexadecanoic acid, ratio versus control (female rats; day 7): 1.18* | Behenic acid (C22:0), ratio versus control (female rats; day 7): 2.8* | Cholesterol, ratio versus control (female rats; day 7): 2.52* | Coenzyme Q9, ratio versus control (female rats; day 7): 2.3* | DAG (C18:1,C18:2), ratio versus control (female rats; day 7): 1.52* | Eicosanoic acid (C20:0), ratio versus control (female rats; day 7): 2.17* | Glucose, ratio versus control (female rats; day 7): 1.4* | Glycerol phosphate, lipid fraction, ratio versus control (female rats; day 7): 2.41* | Glycerol, lipid fraction, ratio versus control (female rats; day 7): 1.89* | Glycerol-3-phosphate, polar fraction, ratio versus control (female rats; day 7): 1.61* | Heptadecanoic acid (C17:0), ratio versus control (female rats; day 7): 1.53* | Linoleic acid (C18:cis[9,12]2), ratio versus control (female rats; day 7): 2.33* | Nervonic acid (C24:cis[15]1), ratio versus control (female rats; day 7): 4.5* | Palmitic acid (C16:0), ratio versus control (female rats; day 7): 1.96* | Phosphatidylcholine (C16:0,C20:5), ratio versus control (female rats; day 7): 1.18* | TAG (C16:0,C18:1,C18:3), ratio versus control (female rats; day 7): 2.84* | TAG (C16:0,C18:2), ratio versus control (female rats; day 7): 2.65* | TAG (C18:1,C18:2), ratio versus control (female rats; day 7): 2.65* | TAG (C18:2,C18:2), ratio versus control (female rats; day 7): 2.42* | TAG (C18:2,C18:3), ratio versus control (female rats; day 7): 2.42* | TAG No 01, ratio versus control (female rats; day 7): 1.87* | TAG No 05, ratio versus control (female rats; day 7): 2.27* | TAG No 07, ratio versus control (female rats; day 7): 1.97 | dihomo-gamma-Linolenic acid (C20:cis[8,11,14]3), ratio versus control (female rats; day 7): 2.69* | erythro-Sphingosine, ratio versus control (female rats; day 7): 4.06* | 3-O-Methylsphingosine (d18:1), ratio versus control (female rats; day 14): 7.58* | 5-O-Methylsphingosine (d18:1), ratio versus control (female rats; day 14): 7.74* | 14-Methylhexadecanoic acid, ratio versus control (female rats; day 14): 1.17* | Behenic acid (C22:0), ratio versus control (female rats; day 14): 4.3* | Cholesterol, ratio versus control (female rats; day 14): 2.96* | Coenzyme Q9, ratio versus control (female rats; day 14): 2.09* | DAG (C18:1,C18:2), ratio versus control (female rats; day 14): 1.92* | Eicosanoic acid (C20:0), ratio versus control (female rats; day 14): 3.19* | Glucose, ratio versus control (female rats; day 14): 1.17* | Glycerol phosphate, lipid fraction, ratio versus control (female rats; day 14): 3.43* | Glycerol, lipid fraction, ratio versus control (female rats; day 14): 2.34* | Glycerol-3-phosphate, polar fraction, ratio versus control (female rats; day 14): 1.72* | Heptadecanoic acid (C17:0), ratio versus control (female rats; day 14): 1.98* | Linoleic acid (C18:cis[9,12]2), ratio versus control (female rats; day 14): 3.2* | Nervonic acid (C24:cis[15]1), ratio versus control (female rats; day 14): 5.92* | Palmitic acid (C16:0), ratio versus control (female rats; day 14): 2.83* | Phosphatidylcholine (C16:0,C20:5), ratio versus control (female rats; day 14): 1.46* | TAG (C16:0,C18:1,C18:3), ratio versus control (female rats; day 14): 3.67* | TAG (C16:0,C18:2), ratio versus control (female rats; day 14): 3.69* | TAG (C18:1,C18:2), ratio versus control (female rats; day 14): 2.74* | TAG (C18:2,C18:2), ratio versus control (female rats; day 14): 2.51* | TAG (C18:2,C18:3), ratio versus control (female rats; day 14): 2.89* | TAG No 01, ratio versus control (female rats; day 14): 1.99* | TAG No 05, ratio versus control (female rats; day 14): 4.68* | TAG No 07, ratio versus control (female rats; day 14): 3.87* | dihomo-gamma-Linolenic acid (C20:cis[8,11,14]3), ratio versus control (female rats; day 14): 4.76* | erythro-Sphingosine, ratio versus control (female rats; day 14): 5.79* | 3-O-Methylsphingosine (d18:1), ratio versus control (female rats; day 28): 5.44* | 5-O-Methylsphingosine (d18:1), ratio versus control (female rats; day 28): 5.42* | 14-Methylhexadecanoic acid, ratio versus control (female rats; day 28): 1.19* | Behenic acid (C22:0), ratio versus control (female rats; day 28): 3.4* | Cholesterol, ratio versus control (female rats; day 28): 2.72* | Coenzyme Q9, ratio versus control (female rats; day 28): 1.75* | DAG (C18:1,C18:2), ratio versus control (female rats; day 28): 2.94* | Eicosanoic acid (C20:0), ratio versus control (female rats; day 28): 2.49* | Glucose, ratio versus control (female rats; day 28): 0.99 | Glycerol phosphate, lipid fraction, ratio versus control (female rats; day 28): 2.93* | Glycerol, lipid fraction, ratio versus control (female rats; day 28): 3.13* | Glycerol-3-phosphate, polar fraction, ratio versus control (female rats; day 28): 1.55* | Heptadecanoic acid (C17:0), ratio versus control (female rats; day 28): 2.08* | Linoleic acid (C18:cis[9,12]2), ratio versus control (female rats; day 28): 3.43* | Nervonic acid (C24:cis[15]1), ratio versus control (female rats; day 28): 5.03* | Palmitic acid (C16:0), ratio versus control (female rats; day 28): 2.86* | Phosphatidylcholine (C16:0,C20:5), ratio versus control (female rats; day 28): 1.26* | TAG (C16:0,C18:1,C18:3), ratio versus control (female rats; day 28): 5.22* | TAG (C16:0,C18:2), ratio versus control (female rats; day 28): 3.73* | TAG (C18:1,C18:2), ratio versus control (female rats; day 28): 3.09* | TAG (C18:2,C18:2), ratio versus control (female rats; day 28): 4.34* | TAG (C18:2,C18:3), ratio versus control (female rats; day 28): 4.18* | TAG No 01, ratio versus control (female rats; day 28): 3.16* | TAG No 05, ratio versus control (female rats; day 28): 5.27* | TAG No 07, ratio versus control (female rats; day 28): 4.1* | dihomo-gamma-Linolenic acid (C20:cis[8,11,14]3), ratio versus control (female rats; day 28): 4.48* | erythro-Sphingosine, ratio versus control (female rats; day 28): 4.33*

Reference: US20150017667A1, “MEANS AND METHODS FOR ASSESSING LIVER DISORDERS” (BASF SE, priority 2012, published 2015)
